Reference: the CheMixHub viscosity set

Test: xn = mol fraction of the nth substance listed

COC(=O)c1ccccc1 + CCCCCCC
viscosity [mPa·s], 101.3 kPa
Settings | x1 = 0.0999 | x1 = 0.196 | x1 = 0.3001 | x1 = 0.3974 | x1 = 0.5004 | x1 = 0.5978 | x1 = 0.6984 | x1 = 0.8033 | x1 = 0.9017
298.15 K | 0.425 | 0.464 | 0.533 | 0.601 | 0.701 | 0.814 | 0.968 | 1.183 | 1.435
308.15 K | 0.382 | 0.418 | 0.472 | 0.535 | 0.616 | 0.708 | 0.839 | 1.008 | 1.197
318.15 K | 0.346 | 0.378 | 0.422 | 0.475 | 0.539 | 0.62 | 0.72 | 0.86 | 1.024

CC(C)c1cc(C(C)C)cc(C(C)C)c1 + CCCCCCCCCCCCCCCC
viscosity [mPa·s], 102 kPa
Settings | x1 = 0.1209 | x1 = 0.1996 | x1 = 0.3001 | x1 = 0.3994 | x1 = 0.5003 | x1 = 0.6004 | x1 = 0.6998 | x1 = 0.7999 | x1 = 0.8993
293.15 K | 3.41 | 3.37 | 3.35 | 3.34 | 3.37 | 3.43 | 3.53 | 3.67 | 3.86
303.15 K | 2.7 | 2.67 | 2.64 | 2.63 | 2.64 | 2.66 | 2.71 | 2.79 | 2.9
313.15 K | 2.19 | 2.16 | 2.13 | 2.12 | 2.12 | 2.13 | 2.15 | 2.19 | 2.26
323.15 K | 1.81 | 1.79 | 1.76 | 1.75 | 1.74 | 1.74 | 1.75 | 1.77 | 1.81

C=CC(=O)OC(C)(C)C + CC#N
viscosity [mPa·s], 100 kPa
Settings | 293.15 K | 298.15 K | 303.15 K | 308.15 K | 313.15 K | 318.15 K
x2 = 0.0772 | 0.8592 | 0.787 | 0.72 | 0.664 | 0.6141 | 0.571
x2 = 0.1496 | 0.8154 | 0.7472 | 0.684 | 0.631 | 0.5837 | 0.5427
x2 = 0.2216 | 0.7728 | 0.7087 | 0.6493 | 0.5994 | 0.5548 | 0.5161
x2 = 0.2983 | 0.7282 | 0.6684 | 0.6132 | 0.5668 | 0.5252 | 0.489
x2 = 0.3643 | 0.6903 | 0.6344 | 0.5828 | 0.5393 | 0.5003 | 0.4663
x2 = 0.4345 | 0.6506 | 0.5988 | 0.5511 | 0.5107 | 0.4745 | 0.4426
x2 = 0.5074 | 0.61 | 0.5624 | 0.5187 | 0.4816 | 0.4481 | 0.4186
x2 = 0.5769 | 0.5719 | 0.5284 | 0.4885 | 0.4544 | 0.4236 | 0.3963
x2 = 0.6465 | 0.5345 | 0.495 | 0.459 | 0.4278 | 0.3997 | 0.3746
x2 = 0.7141 | 0.4991 | 0.4635 | 0.4312 | 0.403 | 0.3775 | 0.3546
x2 = 0.7821 | 0.4645 | 0.4329 | 0.4044 | 0.3793 | 0.3565 | 0.3358
x2 = 0.8603 | 0.4264 | 0.3994 | 0.3753 | 0.354 | 0.3344 | 0.3164
x2 = 0.9345 | 0.3923 | 0.3699 | 0.3502 | 0.3324 | 0.3162 | 0.301

c1ccc2c(c1)CCCC2 + CCCCCCCC
viscosity [mPa·s], 101 kPa
Settings | x2 = 0.0997 | x2 = 0.2011 | x2 = 0.3013 | x2 = 0.3997 | x2 = 0.5003 | x2 = 0.5995 | x2 = 0.7001 | x2 = 0.8014 | x2 = 0.8955
293.15 K | 1.831 | 1.527 | 1.303 | 1.143 | 0.976 | 0.85 | 0.747 | 0.673 | 0.612
298.15 K | 1.675 | 1.405 | 1.207 | 1.063 | 0.918 | 0.811 | 0.702 | 0.635 | 0.58
303.15 K | 1.533 | 1.294 | 1.118 | 0.989 | 0.857 | 0.762 | 0.662 | 0.599 | 0.55
313.15 K | 1.308 | 1.117 | 0.971 | 0.866 | 0.757 | 0.675 | 0.592 | 0.539 | 0.496
